Broadly, the IC50 is the concentration needed to halve the response being measured.

Active and inactive are the calls of the source. The rule behind the calls is not given here.

Consider four molecules from ChEMBL document CHEMBL1137697, “In vitro and in vivo antitrypanosomatid activity of 5-nitroindazoles” (Eur J Med Chem, 2009).

For the first data set, the system named is Trypanosoma cruzi. Nature of the data set: Inhibition of respiration in Trypanosoma cruzi Tulahuen 2 assessed as oxygen uptake. The data set is classed as functional, organism-based.
Settings: not given
For `CN(C)CCCCCn1nc(OCc2ccccc2)c2cc([N+](=O)[O-])ccc21`, the Activity entry is “Dose-dependent effect”.

Consider `CN(C)CCOCCn1nc(OCc2ccccc2)c2cc([N+](=O)[O-])ccc21`, for which the Activity entry was “Dose-dependent effect”.

A further data set has as its system Trypanosoma cruzi. Briefly: Inhibition of respiration in Trypanosoma cruzi Tulahuen 2 assessed as oxygen uptake at 0.724 mM. The data set is classed as functional. More on the design: scale not given: the % may be the effect or the level left.
Settings: not given
For `CN(C)CCOCCn1nc(OCc2ccccc2)c2cc([N+](=O)[O-])ccc21`, the Activity is given as 9%.

The subject of another data set is Trypanosoma cruzi. Nature of the data set: Inhibition of respiration in Trypanosoma cruzi Tulahuen 2 assessed as oxygen uptake at 0.172 mM. The data set is classed as functional. More on the design: scale not given: the % may be the effect or the level left.
Settings: not given
Consider `O=[N+]([O-])c1ccc2c(c1)c(OCc1ccccc1)nn2CCCCCN1CCCCC1`, for which the Activity is reported as 111%.

Another data set relates to Leishmania braziliensis. Briefly: Antileishmanial activity against Leishmania braziliensis MHOM/BR/75/M2903 promastigote assessed as lysis at 100 ug/mL after 72 hrs. The data set is classed as functional.
Settings: not given
As for `O=[N+]([O-])c1ccc2c(c1)c(OCc1ccccc1)nn2CCCCCN1CCCCC1`, the Activity amounted to 100%.

Take `COc1nn(CCCCCN2CCCCC2)c2ccc([N+](=O)[O-])cc12.Cl`: the Activity is below 60%.

Turning to `CN(C)CCOCCn1nc(OCc2ccccc2)c2cc([N+](=O)[O-])ccc21`, the Activity was found to be 100%.

Test system in the next data set: not listed separately
Nature of the data set: Toxicity in BALB/c mouse assessed as survival fraction at 30 mg/kg, po after 9 weeks. The conditions noted are these: in vivo. The data set is classed as organism-based. On the set-up: dose 30 mg/kg, route oral.
As for `CN(C)CCOCCn1nc(OCc2ccccc2)c2cc([N+](=O)[O-])ccc21`, the survival at 1512 h stood at 87.5%.

The test system of another data set is Trypanosoma cruzi. Briefly: Inhibition of respiration in Trypanosoma cruzi Tulahuen 2 assessed as oxygen uptake at 0.091 mM. More on the design: scale not given: the % may be the effect or the level left. In kind it is functional.
Settings: not given
Turning to `O=[N+]([O-])c1ccc2c(c1)c(OCc1ccccc1)nn2CCCCCN1CCCCC1`, the Activity is 109%.

The subject of another data set is Leishmania infantum. Nature of the data set: Antileishmanial activity against Leishmania infantum MHOM/FR/91/LEM2259 promastigote assessed as lysis at 100 ug/mL after 72 hrs.
Settings: not given
The data set is classed as functional.
In the case of `O=[N+]([O-])c1ccc2c(c1)c(OCc1ccccc1)nn2CCCCCN1CCCCC1`, the Activity came to 100%.

`COc1nn(CCCCCN2CCCCC2)c2ccc([N+](=O)[O-])cc12.Cl`: the Activity is recorded as below 60%.

With `CN(C)CCOCCn1nc(OCc2ccccc2)c2cc([N+](=O)[O-])ccc21`, the Activity was 100%.

The test system of another data set is Trypanosoma cruzi. Briefly: Antitrypanosomal activity against Trypanosoma cruzi bloodstream trypomastigote in mouse blood assessed as lysis of trypomastigotes at 250 ug/mL after 24 hrs relative to control. The data set is classed as functional.
Settings: not given
In the case of `O=[N+]([O-])c1ccc2c(c1)c(OCc1ccccc1)nn2CCCCCN1CCCCC1`, the Activity was 34%.

For the molecule `COc1nn(CCCCCN2CCCCC2)c2ccc([N+](=O)[O-])cc12.Cl`, the Activity worked out at 100%.

As to `CN(C)CCCCCn1nc(OCc2ccccc2)c2cc([N+](=O)[O-])ccc21`, the Activity is listed as 100%.

On to `CN(C)CCOCCn1nc(OCc2ccccc2)c2cc([N+](=O)[O-])ccc21`, for which the Activity came out at 87%.

For the next data set, the system named is J774. Briefly: Cytotoxicity in mouse J774 cells at 100 ug/mL after 48 hrs. The conditions noted are these: j774, 48 h. In kind it is cell-based.
For `O=[N+]([O-])c1ccc2c(c1)c(OCc1ccccc1)nn2CCCCCN1CCCCC1`, the Activity entry is reported as “Toxic”.

For `COc1nn(CCCCCN2CCCCC2)c2ccc([N+](=O)[O-])cc12.Cl`, the Activity entry is “Toxic”.

Consider `CN(C)CCCCCn1nc(OCc2ccccc2)c2cc([N+](=O)[O-])ccc21`, for which the Activity entry was “Toxic”.

Regarding `CN(C)CCOCCn1nc(OCc2ccccc2)c2cc([N+](=O)[O-])ccc21`, the Activity result was “Non-toxic”.

In a further data set the test system is Trypanosoma cruzi. Briefly: Inhibition of respiration in Trypanosoma cruzi Tulahuen 2 assessed as oxygen uptake at 0.181 mM. The data set is classed as functional.
Settings: not given
On the set-up: scale not given: the % may be the effect or the level left.
In the case of `CN(C)CCOCCn1nc(OCc2ccccc2)c2cc([N+](=O)[O-])ccc21`, the Activity is 66%.

For another data set, the system named is Trypanosoma cruzi. Briefly: Inhibition of respiration in Trypanosoma cruzi Tulahuen 2 assessed as oxygen uptake at 0.467 mM. In kind it is functional. More on the design: scale not given: the % may be the effect or the level left.
Settings: not given
For the molecule `CN(C)CCCCCn1nc(OCc2ccccc2)c2cc([N+](=O)[O-])ccc21`, the Activity came out at 11%.

Another data set concerns Trypanosoma cruzi. Briefly: Inhibition of respiration in Trypanosoma cruzi Tulahuen 2 assessed as oxygen uptake at 0.156 mM. In kind it is functional. On the set-up: scale not given: the % may be the effect or the level left.
Settings: not given
On to `CN(C)CCCCCn1nc(OCc2ccccc2)c2cc([N+](=O)[O-])ccc21`, for which the Activity worked out at 99%.

A further data set relates to Trypanosoma cruzi. Nature of the data set: Inhibition of respiration in Trypanosoma cruzi Tulahuen 2 assessed as oxygen uptake at 0.543 mM. On the set-up: scale not given: the % may be the effect or the level left. The data set is classed as functional.
Settings: not given
As for `CN(C)CCOCCn1nc(OCc2ccccc2)c2cc([N+](=O)[O-])ccc21`, the Activity is 11%.

For another data set, the system named is Trypanosoma cruzi. Nature of the data set: Inhibition of respiration in Trypanosoma cruzi Tulahuen 2 assessed as oxygen uptake at 0.622 mM. In kind it is functional. On the set-up: scale not given: the % may be the effect or the level left.
Settings: not given
For the molecule `CN(C)CCCCCn1nc(OCc2ccccc2)c2cc([N+](=O)[O-])ccc21`, the Activity is recorded as 7%.

For another data set, the system named is Trypanosoma cruzi. Nature of the data set: Inhibition of respiration in Trypanosoma cruzi Tulahuen 2 assessed as oxygen uptake at 0.426 mM. The data set is classed as functional. On the set-up: scale not given: the % may be the effect or the level left.
Settings: not given
For `CN(C)CCOCCn1nc(OCc2ccccc2)c2cc([N+](=O)[O-])ccc21`, the Activity is listed as 10%.

The next data set concerns J774. Briefly: Cytotoxicity in mouse J774 cells at 100 ug/mL after 24 hrs. The data set is classed as cell-based. As to conditions: j774, 24 h.
With `O=[N+]([O-])c1ccc2c(c1)c(OCc1ccccc1)nn2CCCCCN1CCCCC1`, the Activity result is listed as “Toxic”.

In the case of `COc1nn(CCCCCN2CCCCC2)c2ccc([N+](=O)[O-])cc12.Cl`, the Activity entry is on record as “Toxic”.

With `CN(C)CCCCCn1nc(OCc2ccccc2)c2cc([N+](=O)[O-])ccc21`, the Activity result is “Toxic”.

Regarding `CN(C)CCOCCn1nc(OCc2ccccc2)c2cc([N+](=O)[O-])ccc21`, the Activity entry was “Non-toxic”.

The next data set deals with Trypanosoma cruzi. Nature of the data set: Inhibition of respiration in Trypanosoma cruzi Tulahuen 2 assessed as oxygen uptake at 0.325 mM. The data set is classed as functional.
Settings: not given
On the set-up: scale not given: the % may be the effect or the level left.
`CN(C)CCCCCn1nc(OCc2ccccc2)c2cc([N+](=O)[O-])ccc21`: the Activity is reported as 12%.

A further data set concerns Trypanosoma cruzi. Briefly: Inhibition of respiration in Trypanosoma cruzi Tulahuen 2 assessed as oxygen uptake at 0.362 mM. On the set-up: scale not given: the % may be the effect or the level left.
Settings: not given
In kind it is functional.
For the molecule `CN(C)CCOCCn1nc(OCc2ccccc2)c2cc([N+](=O)[O-])ccc21`, the Activity is reported as 10%.

The subject of a further data set is Trypanosoma cruzi. Nature of the data set: Inhibition of respiration in Trypanosoma cruzi Tulahuen 2 assessed as oxygen uptake at 0.272 mM. On the set-up: scale not given: the % may be the effect or the level left. The data set is classed as functional.
Settings: not given
Regarding `O=[N+]([O-])c1ccc2c(c1)c(OCc1ccccc1)nn2CCCCCN1CCCCC1`, the Activity turned out to be 100%.

Another data set deals with Trypanosoma cruzi. Briefly: Antitrypanosomal activity against Trypanosoma cruzi bloodstream trypomastigote infected in BALB/c mouse assessed as parasitemia at 30 mg/kg, po after 60 days by colorimetric method.
Settings: not given
In kind it is functional, organism-based. On the set-up: dose 30 mg/kg.
`CN(C)CCOCCn1nc(OCc2ccccc2)c2cc([N+](=O)[O-])ccc21`: the result was Active.

The next data set relates to Trypanosoma cruzi. Briefly: Antitrypanosomal activity against Trypanosoma cruzi bloodstream trypomastigote infected in BALB/c mouse assessed as antibodies at 30 mg/kg, po after 60 days by colorimetric method. The data set is classed as functional, organism-based. On the set-up: dose 30 mg/kg.
Settings: not given
For `CN(C)CCOCCn1nc(OCc2ccccc2)c2cc([N+](=O)[O-])ccc21`, the result was Active.

For the next data set, the system named is Leishmania amazonensis. Nature of the data set: Antileishmanial activity against Leishmania amazonensis MHOM/BR/PH8 promastigote assessed as lysis at 100 ug/mL after 72 hrs. The data set is classed as functional.
Settings: not given
`O=[N+]([O-])c1ccc2c(c1)c(OCc1ccccc1)nn2CCCCCN1CCCCC1`: the Activity is 100%.

Consider `COc1nn(CCCCCN2CCCCC2)c2ccc([N+](=O)[O-])cc12.Cl`, for which the Activity is listed as below 60%.

`CN(C)CCOCCn1nc(OCc2ccccc2)c2cc([N+](=O)[O-])ccc21`: the Activity came out at 100%.

The test system of the next data set is Trypanosoma cruzi. Briefly: Antitrypanosomal activity against Trypanosoma cruzi bloodstream trypomastigote in mouse blood after 24 hrs relative to control. In kind it is functional, organism-based.
Settings: not given
In turn, `O=[N+]([O-])c1ccc2c(c1)c(OCc1ccccc1)nn2CCCCCN1CCCCC1` displayed an IC50 of 6.6 µM.

`CN(C)CCCCCn1nc(OCc2ccccc2)c2cc([N+](=O)[O-])ccc21` yielded a concentration for half-maximal inhibition (IC50) of 12.5 µM.

`CN(C)CCOCCn1nc(OCc2ccccc2)c2cc([N+](=O)[O-])ccc21` registered an IC50 of 16.4 µM.
